Paper PMC12484856, “A Self-Assembling Senolytic Prodrug with Enhanced Bioavailability and Selective Activation for Targeting Senescent Retinal Pigment Epithelium” (Biomaterials Research, 2025)

Molecular target: T1, MDM2 (Homo sapiens, UniProt Q00987)
T1 construct: MDM2 (Abcam, ab167941)
Experiment: fluorescence polarization competition with FITC-p53 peptide
Assay type: binding
Excerpt: fluorescence polarization competition with FITC-p53 peptide on MDM2 | analysis of the interaction of N201 with MDM2 instead of with fluorescein isothiocyanate (FITC)–p53.

T1 sequence (Q00987 whole entry): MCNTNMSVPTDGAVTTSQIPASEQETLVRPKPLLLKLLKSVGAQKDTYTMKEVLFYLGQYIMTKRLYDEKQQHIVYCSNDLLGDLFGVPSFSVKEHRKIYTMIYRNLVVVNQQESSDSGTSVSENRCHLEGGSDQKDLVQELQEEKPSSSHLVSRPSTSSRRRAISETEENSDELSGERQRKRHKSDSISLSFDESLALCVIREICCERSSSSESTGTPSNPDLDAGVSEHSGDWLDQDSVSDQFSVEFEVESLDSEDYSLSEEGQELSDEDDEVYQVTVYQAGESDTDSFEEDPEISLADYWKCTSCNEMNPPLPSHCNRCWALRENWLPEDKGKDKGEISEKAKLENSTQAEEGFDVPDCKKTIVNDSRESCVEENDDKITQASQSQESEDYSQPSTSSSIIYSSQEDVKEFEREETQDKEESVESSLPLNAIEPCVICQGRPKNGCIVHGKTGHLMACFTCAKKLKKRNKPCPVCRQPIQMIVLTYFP

| IC50 [nM] | Compound |
| --- | --- |
| 200 | COc1ccc(C2=NC(c3ccc(Cl)cc3)C(c3ccc(Cl)cc3)N2C(=O)N2CCN(CCO[C@@H]3O[C@H](CO)[C@H](O)[C@H](O)[C@H]3O)CC2)c(OC(C)C)c1 (some centres unmarked) [N201-gal] |
| 130 | COc1ccc(C2=NC(c3ccc(Cl)cc3)C(c3ccc(Cl)cc3)N2C(=O)N2CCN(CCO)CC2)c(OC(C)C)c1 (centres unmarked) [N201] |
